# According to patent US10513694B2, “Thienopyrrole compounds and uses thereof” (PROMEGA CORPORATION, priority 2015, dated 2019):
# Entries after “also recorded” stand apart in the source; their conditions may differ.
# Columns and labels:
# [1] = system: firefly luciferase, e.g., ULTRAGLO® luciferase; assay: Specificity of inhibition: firefly luciferase activity; format: biochemical; settings: 1 μM luciferin in Luciferase Detection Reagent; RT 2 hrs
# Method: (§1) The following example describes the specificity of disclosed thienopyrrole compounds, JRW-0004, JRW-0013, JRW-0006, JRW-0042, JRW-0138, and JRW-0147, to inhibit Nluc luciferase activity versus firefly luciferase activity, e.g., ULTRAGLO® luciferase. In a Corning 3570 assay plate, a solution containing 1 μM luciferin in Luciferase Detection Reagent (Promega Corporation V865/859) was added to the assay wells. An equal volume of titrations the thienopyrrole compounds, JRW-0004, JRW-0013, JRW-0006, JRW-0042, JRW-0138, and JRW-0147 were then added to the wells. The reactions were incubated at RT for 2 hrs, and luminescence was measured on Tecan M1000 Pro plate reader.
# [2] = biological target: NANOLUC® enzyme (Oplophorus gracilirostris, UniProt Q9GV45, A31E/A60N/A81I/F95D/I117V/K70R/L54V/L99Q/M102K/N193R/P142E/Q151K/Q38R/Q45L/V71I/Y165I); assay: Inhibitor IC50 determination (NANOLUC enzyme, furimazine); format: biochemical; settings: IC50 (uM), 0.4 ng/ml NANOLUC enzyme, final furimazine 10 uM (at Km)
# Method: The following example provides the IC50 values for the compounds disclosed herein. See Table 5 NANOLUC® enzyme was diluted to 0.4 ng/ml in CO2 independent media+10% FBS to make the detection reagent. A 3× dilution series of each inhibitor was then made in the detection reagent. A “no inhibitor” control was also made for each sample. 50 ul of each inhibitor dilution was mixed with 50 ul of NanoGlo buffer containing 20 uM furimazine. (Final furimazine concentration is 10 uM which is at Km.), and luminescence measured. Each sample was normalized to the “no inhibitor” control. The […] values were then determined using GraphPad Prism (log [inhibitor] vs. normalized response).
# [3] = biological target: T1, purified Nluc enzyme (Oplophorus gracilirostris, UniProt Q9GV45, A31E/A60N/A81I/F95D/I117V/K70R/L54V/L99Q/M102K/N193R/P142E/Q151K/Q38R/Q45L/V71I/Y165I); format: biochemical; settings: titration up to 100 μM final; RT 2 hrs; pro-substrate PBI-4442 + DTT
# T1 construct: purchased Promega Corporation
# Method: In a Corning 3570 assay plate, purified Nluc enzyme (Promega Corporation), 20 mM DTT, and an Nluc pro-substrate (PBI-4442, which is described in US Patent Publication No. 2013/0130289), which is converted to an Nluc substrate upon reduction with DTT, was added. Compound titrations of JRW-0004, JRW-0013, JRW-0006, JRW-0042, JRW-0138, and JRW-0147 were then made (1:2 serial dilution in PBS, 11 points plus no inhibitor control, starting at 200 μM; 100 μM final concentration in reaction). Compound titrations were added in equal volume to the wells of the assay plate. The reactions were incubated at RT for 2 hrs, and luminescence was measured on Tecan M1000 Pro plate reader. Half-maximal inhibitor (thienopyrrole compound) concentrations (IC50s) were determined using GraphPad Prism 6.03.
# [4] = biological target: Nluc (Oplophorus gracilirostris, UniProt Q9GV45, A31E/A60N/A81I/F95D/I117V/K70R/L54V/L99Q/M102K/N193R/P142E/Q151K/Q38R/Q45L/V71I/Y165I); assay: Specificity of inhibition of Nluc luciferase: Nluc; format: biochemical
# [5] = system: UltraGlo luciferase; assay: Specificity of inhibition of Nluc luciferase: UltraGlo luciferase; format: biochemical, firefly; settings: RT 2 hrs
# Method: as §1, with “JRW-0251, JRW-0344,” for “JRW-0004, JRW-0013, JRW-0006, JRW-0042, JRW-0138,”
# [6] = biological target: Nluc luciferase (Oplophorus gracilirostris, UniProt Q9GV45, A31E/A60N/A81I/F95D/I117V/K70R/L54V/L99Q/M102K/N193R/P142E/Q151K/Q38R/Q45L/V71I/Y165I); assay: Inhibition of purified Nluc, dose and time dependence; format: biochemical; settings: pro-substrate PBI-4442, DTT, TERGITOL, RT, various time points
# Method: A solution of purified Nluc and an Nluc pro-substrate (PBI-4442, which is described in US 2013/0130289), which is converted to an Nluc substrate upon reduction with DTT, were prepared in PBS buffer, pH 7.5. A 40 mM solution of DTT in PBS, pH 7.5 containing 1% TERGITOL was also prepared. Titrations of the thienopyrrole compounds JRW-0004, WZ141-88, WZ141-86, WZ141-74, WZ141-84, WZ141-89, WZ141-90, and WZ141-91 in the buffer containing DTT and TERGITOL were then prepared. An equal volume of the Nluc/pro-substrate solution was added to the thienopyrrole compound titrations in wells of an assay plate. The reactions were incubated at RT, and luminescence was measured at various time points on the Tecan M100 Pro plate reader (integration time 200 ms). IC50 values were determined using GraphPad Prism 6.03.
# Nluc luciferase, sequence (Q9GV45 28-196 with tags or gaps with the stated changes limits assumed): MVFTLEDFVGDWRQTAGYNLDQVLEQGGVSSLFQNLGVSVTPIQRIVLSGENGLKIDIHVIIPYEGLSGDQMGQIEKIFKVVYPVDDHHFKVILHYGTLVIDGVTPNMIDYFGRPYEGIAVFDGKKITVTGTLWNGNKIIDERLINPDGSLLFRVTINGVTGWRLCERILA
# NANOLUC® enzyme, sequence (Q9GV45 28-196 with tags or gaps with the stated changes limits assumed): as above
# Nluc, sequence (Q9GV45 28-196 with tags or gaps with the stated changes limits assumed): as above
# T1 sequence (Q9GV45 28-196 with tags or gaps with the stated changes limits assumed): as above
smiles,measurement,setting,value
"CCN(C(=O)Cn1c(C(=O)NC2CCCCC2)cc2sccc21)c1cccc(C)c1 [JRW-0006, N-cyclohexyl-4-(2-(ethyl(m-tolyl)amino)-2-oxoethyl)-4H-thieno[3,2-b]pyrrole-5-carboxamide]",Inhibition of firefly luciferase activity (FIG. 3),[1],do not inhibit firefly luciferase activity; also recorded: did not inhibit the firefly luciferase activity
same,IC50,[2],0.26 µM
same,Inhibition of purified Nluc enzyme (FIG. 2),[3],capable of inhibiting purified Nluc enzyme
"CCN(C(=O)Cn1c(C(=O)N[C@H]2CC[C@H](C(=O)NCCCCCCNC(=O)[C@H](CC(=O)O)NC(=O)[C@H](CC(=O)O)NC(=O)[C@H](CC(=O)O)NC(C)=O)CC2)cc2sccc21)c1cccc(C)c1 [JRW-0251, (11S,14S,17S)-17-acetamido-11,14-bis(carboxymethyl)-1-(trans-4-(4-(2-(ethyl(m-tolyl)amino)-2-oxoethyl)-4H-thieno[3,2-b]pyrrole-5-carboxamido)cyclohexyl)-1,10,13,16-tetraoxo-2,9,12,15-tetraazanonadecan-19-oic acid]","Nluc, Avg (luminescence)",[4]; [cmpd] 0.1953125 μM,108634
same,"Nluc, S/B",[4]; [cmpd] 0.1953125 μM,0.95
same,"Nluc, Avg (luminescence)",[4]; [cmpd] 0.390625 μM,106075
same,"Nluc, S/B",[4]; [cmpd] 0.390625 μM,0.93
same,"Nluc, Avg (luminescence)",[4]; [cmpd] 0.78125 μM,105881
same,"Nluc, S/B",[4]; [cmpd] 0.78125 μM,0.92
same,"Nluc, Avg (luminescence)",[4]; [cmpd] 1.5625 μM,96602
same,"Nluc, S/B",[4]; [cmpd] 1.5625 μM,0.84
same,"Nluc, Avg (luminescence)",[4]; [cmpd] 3.125 μM,86555
same,"Nluc, S/B",[4]; [cmpd] 3.125 μM,0.76
same,"Nluc, Avg (luminescence)",[4]; [cmpd] 6.25 μM,81193
same,"Nluc, S/B",[4]; [cmpd] 6.25 μM,0.71
same,"Nluc, Avg (luminescence)",[4]; [cmpd] 12.5 μM,68664
same,"Nluc, S/B",[4]; [cmpd] 12.5 μM,0.60
same,"Nluc, Avg (luminescence)",[4]; [cmpd] 25 μM,55210
same,"Nluc, S/B",[4]; [cmpd] 25 μM,0.48
same,"Nluc, Avg (luminescence)",[4]; [cmpd] 50 μM,44219
same,"Nluc, S/B",[4]; [cmpd] 50 μM,0.39
same,"Nluc, Avg (luminescence)",[4]; [cmpd] 100 μM,34389
same,"Nluc, S/B",[4]; [cmpd] 100 μM,0.30
same,"Nluc, Avg (luminescence)",[4]; [cmpd] 200 μM,23311
same,"Nluc, S/B",[4]; [cmpd] 200 μM,0.20
same,Inhibition of firefly luciferase activity (Table 3),[5],did not inhibit the firefly luciferase activity
same,"UltraGlo luciferase, Avg (luminescence)",[5]; [cmpd] 0.1953125 μM,83059
same,"UltraGlo luciferase, S/B",[5]; [cmpd] 0.1953125 μM,0.98
same,"UltraGlo luciferase, Avg (luminescence)",[5]; [cmpd] 0.390625 μM,82723
same,"UltraGlo luciferase, S/B",[5]; [cmpd] 0.390625 μM,0.98
same,"UltraGlo luciferase, Avg (luminescence)",[5]; [cmpd] 0.78125 μM,82812
same,"UltraGlo luciferase, S/B",[5]; [cmpd] 0.78125 μM,0.98
same,"UltraGlo luciferase, Avg (luminescence)",[5]; [cmpd] 1.5625 μM,82370
same,"UltraGlo luciferase, S/B",[5]; [cmpd] 1.5625 μM,0.98
same,"UltraGlo luciferase, Avg (luminescence)",[5]; [cmpd] 3.125 μM,81125
same,"UltraGlo luciferase, S/B",[5]; [cmpd] 3.125 μM,0.96
same,"UltraGlo luciferase, Avg (luminescence)",[5]; [cmpd] 6.25 μM,83665
same,"UltraGlo luciferase, S/B",[5]; [cmpd] 6.25 μM,0.99
same,"UltraGlo luciferase, Avg (luminescence)",[5]; [cmpd] 12.5 μM,83569
same,"UltraGlo luciferase, S/B",[5]; [cmpd] 12.5 μM,0.99
same,"UltraGlo luciferase, Avg (luminescence)",[5]; [cmpd] 25 μM,83382
same,"UltraGlo luciferase, S/B",[5]; [cmpd] 25 μM,0.99
same,"UltraGlo luciferase, Avg (luminescence)",[5]; [cmpd] 50 μM,81930
same,"UltraGlo luciferase, S/B",[5]; [cmpd] 50 μM,0.97
same,"UltraGlo luciferase, Avg (luminescence)",[5]; [cmpd] 100 μM,79556
same,"UltraGlo luciferase, S/B",[5]; [cmpd] 100 μM,0.94
same,"UltraGlo luciferase, Avg (luminescence)",[5]; [cmpd] 200 μM,77788
same,"UltraGlo luciferase, S/B",[5]; [cmpd] 200 μM,0.92
same,IC50,[2],0.077 µM
"CCN(C(=O)Cn1c(C(=O)O)cc2sccc21)c1cccc(C)c1 [WZ-141-74, 4-(2-(ethyl(m-tolyl)amino)-2-oxoethyl)-4H-thieno[3,2-b]pyrrole-5-carboxylic acid]",IC50,[2],16.4 µM
same,"Inhibition of Nluc luciferase, dose and time dependence (FIGS. 4-6)",[6],inhibit Nluc luciferase in a dose- and time-dependent manner
"CCN(C(=O)Cn1c(C(=O)NC)cc2sccc21)c1cccc(C)c1 [WZ-141-84, 4-(2-(ethyl(m-tolyl)amino)-2-oxoethyl)-N-methyl-4H-thieno[3,2-b]pyrrole-5-carboxamide]",IC50,[2],5.5 µM
same,"Inhibition of Nluc luciferase, dose and time dependence (FIGS. 4-6)",[6],inhibit Nluc luciferase in a dose- and time-dependent manner
"COC(=O)c1cc2sccc2n1CC(=O)N(Cc1ccccc1)c1cccc(C)c1 [WZ-141-86, methyl 4-(2-(benzyl(m-tolyl)amino)-2-oxoethyl)-4H-thieno[3,2-b]pyrrole-5-carboxylate]","Inhibition of Nluc luciferase, dose and time dependence (FIGS. 4-6)",[6],inhibit Nluc luciferase in a dose- and time-dependent manner
"CCN(C(=O)Cn1c(C(=O)NC2CCCC2)cc2sccc21)c1cccc(C)c1 [WZ-141-88, N-cyclopentyl-4-(2-(ethyl(m-tolyl)amino)-2-oxoethyl)-4H-thieno[3,2-b]pyrrole-5-carboxamide]",IC50,[2],0.54 µM
same,"Inhibition of Nluc luciferase, dose and time dependence (FIGS. 4-6)",[6],inhibit Nluc luciferase in a dose- and time-dependent manner
"CCN(C(=O)Cn1c(C(=O)NCc2ccncc2)cc2sccc21)c1cccc(C)c1 [WZ-141-89, 4-(2-(ethyl(m-tolyl)amino)-2-oxoethyl)-N-(pyridin-4-ylmethyl)-4H-thieno[3,2-b]pyrrole-5-carboxamide]","Inhibition of Nluc luciferase, dose and time dependence (FIGS. 4-6)",[6],inhibit Nluc luciferase in a dose- and time-dependent manner
"CCN(C(=O)Cn1c(C(=O)NCCCN2CCOCC2)cc2sccc21)c1cccc(C)c1 [WZ-141-90, 4-(2-(ethyl(m-tolyl)amino)-2-oxoethyl)-N-(3-morpholinopropyl)-4H-thieno[3,2-b]pyrrole-5-carboxamide]","Inhibition of Nluc luciferase, dose and time dependence (FIGS. 4-6)",[6],inhibit Nluc luciferase in a dose- and time-dependent manner
"CCN(C(=O)Cn1c(C(=O)N2CCN(C)CC2)cc2sccc21)c1cccc(C)c1 [WZ-141-91, N-ethyl-2-(5-(4-methylpiperazine-1-carbonyl)-4H-thieno[3,2-b]pyrrol-4-yl)-N-(m-tolyl)acetamide]","Inhibition of Nluc luciferase, dose and time dependence (FIGS. 4-6)",[6],inhibit Nluc luciferase in a dose- and time-dependent manner
